Experimental data from US10524471B2, “Compositions and methods for increasing salt tolerance in plants” (King Abdullah University of Science and Technology, priority 2016, dated 2020).
“Also recorded” adds a separate entry of the source.

Tested on: Arabidopsis seedlings
Experiment: Arabidopsis salt stress tolerance assay (½ MS + 100 mM NaCl)
Format: in vivo, Arabidopsis thaliana

| SMILES | SA187-induced tolerance to salt stress in presence of inhibitor (in vivo) | effect on salt stress tolerance compared with SA187 (100 nM ACC, ½ MS + 100 mM NaCl, 12 days after transfer) |
| --- | --- | --- |
| O=[N+]([O-])[O-].[Ag+] [AgNO3, silver nitrate] | did not exhibit any SA187-induced tolerance to salt stress |  |
| NC1(C(=O)O)CC1 [ACC, 1-aminocyclopropane-1-carboxylic acid] |  | could largely mimic the beneficial activity of SA187; also recorded: partially mimics the effect of SA187 |
